{
  "source": "patent EP0551200A1",
  "about": "“Protein phosphatase inhibitors for use in therapy” (priority 1992, dated 1993)",
  "test_system": "Egr-1 protein",
  "assay": "Immunoprecipitation of 32P-labeled Egr-1 protein from Balb/c 3T3 cells",
  "type": "cell-based, mouse",
  "settings": "2 h treatment; OA 0.5 µM, calyculin A 25 nM, 20% fetal calf serum",
  "description": "Quiescent Balb/c 3T3 cells were labeled with [³²P]-orthophosphate and incubated with either 20% fetal calf serum or okadaic acid (0.5 µM) for 2 h as described in \"Experimental Procedures\" of Example 2. Egr-1 protein(s) was immunoprecipitated by anti-Egr-1 antibody (R5232) and subjected to 7.5% SDS-PAGE. The dried SDS-gel was autoradiographed. lanes C, S and OA show immunoprecipitated proteins derived from quiescent cells, serum and okadaic acid-treated cells respectively. • (B). The immunoprecipitated Egr-1 protein(s) from okadaic acid-treated [³²P]-labeled Balb/c 3T3 cells was also subjected to 2-D gel electrophoresis as previously described (Guy et al, J. Biol. Chem. 266, 14343-14352, 1991). […]\nThe radioactivity of the in vitro transcribed RNA was determined and equal amounts of radioactive RNA from uninduced and okadaic acid treated cells were used to hybridize to specific plasmid (5 µg) previously applied to a nylon matrix with the aid of a slot blot applicator (Schleicher & Schuell, Keene, NH, US). […]\nOkadaic acid or calyculin A was then added to a final concentration of 0.5 µM or 25 nM respectively and incubated for another 2 h. […] The immunoprecipitated proteins were analyzed by 7.5% SDS-PAGE as well as by two-dimensional gel electrophoresis as described previously (Guy et al, J. Biol. Chem. 266, 14343-14352, 1991). […]",
  "data": [
    {"smiles": "C=C1[C@@H](O)[C@@H]2O[C@]3(CC[C@H](/C=C/[C@@H](C)[C@@H]4CC(C)=C[C@@]5(O[C@H](C[C@@](C)(O)C(=O)O)CC[C@H]5O)O4)O3)CC[C@H]2O[C@@H]1[C@@H](O)C[C@H](C)[C@H]1O[C@@]2(CCCCO2)CC[C@H]1C", "note": "[okadaic acid]", "values": [
      {"measurement": "Egr-1 phosphoprotein immunoprecipitated (in words)", "result": "high cellular concentration of the about 100 kDa Egr-1 phosphoprotein"}
    ]}
  ]
}
